The results in this text go back to US7786141B2 (Vertex Pharmaceuticals Incorporated, priority 2004, dated 2010).

In one experiment the target is T1, M1 muscarinic receptor (Homo sapiens, UniProt P11229).
T1 construct: expressed in transfected cells; host or cells: CHO (M1-CHO)
T1 sequence (P11229 1-460): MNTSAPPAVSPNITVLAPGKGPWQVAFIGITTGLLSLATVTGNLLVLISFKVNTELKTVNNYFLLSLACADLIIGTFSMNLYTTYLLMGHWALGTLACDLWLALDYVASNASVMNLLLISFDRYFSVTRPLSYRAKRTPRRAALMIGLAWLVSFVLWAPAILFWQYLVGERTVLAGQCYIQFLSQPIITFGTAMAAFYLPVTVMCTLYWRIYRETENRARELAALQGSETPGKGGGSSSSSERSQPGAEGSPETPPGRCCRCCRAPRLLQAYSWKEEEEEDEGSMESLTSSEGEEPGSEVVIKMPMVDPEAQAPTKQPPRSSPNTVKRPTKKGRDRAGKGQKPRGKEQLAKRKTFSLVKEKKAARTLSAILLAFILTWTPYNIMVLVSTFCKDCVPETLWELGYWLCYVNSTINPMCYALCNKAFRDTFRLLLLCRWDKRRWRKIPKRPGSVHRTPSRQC
In words: Functional mobilization of intracellular calcium (FLIPR) in M1-CHO cells. In kind it is cell-based. To be noted: Table 4; for M1 Activity: M1 receptor, calcium mobilization (FLIPR). Put shortly: (§1)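 FLIPR Ca2+ read, ex 488/em 540 nm, 60 s. Recombinant CHO lines (M1 or M4), dye-loaded Fluo-3 AM 60-90 min at 37° C, probenecid 1 mM, pH 7.4. Agonist: compound alone; inhibition: 15 min compound pre-incubation, then carbachol at EC80 for that subtype.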
A general note: Calcium flux is commonly read through the fluorescence of an indicator in the cells.

Another experiment concerns the target T2, M4 muscarinic receptor (Homo sapiens, UniProt P08173).
T2 construct: expressed in transfected cells; host or cells: CHO (M4-CHO)
T2 sequence (P08173 1-479): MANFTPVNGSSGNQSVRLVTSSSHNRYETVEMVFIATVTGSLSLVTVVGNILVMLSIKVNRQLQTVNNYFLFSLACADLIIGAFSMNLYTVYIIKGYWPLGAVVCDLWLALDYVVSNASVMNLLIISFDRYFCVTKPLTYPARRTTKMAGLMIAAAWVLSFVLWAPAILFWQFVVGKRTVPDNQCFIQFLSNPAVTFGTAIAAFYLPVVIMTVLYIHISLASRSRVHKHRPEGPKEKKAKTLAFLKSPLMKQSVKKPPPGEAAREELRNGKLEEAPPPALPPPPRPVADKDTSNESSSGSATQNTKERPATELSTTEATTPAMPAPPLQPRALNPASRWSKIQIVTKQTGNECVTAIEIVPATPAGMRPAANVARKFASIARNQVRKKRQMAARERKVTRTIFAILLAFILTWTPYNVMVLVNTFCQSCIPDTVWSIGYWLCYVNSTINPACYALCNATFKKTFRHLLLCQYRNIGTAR
In words: Functional mobilization of intracellular calcium (FLIPR) in M4-CHO cells. In kind it is cell-based. To be noted: Table 4; for M4 Activity: M4 receptor, calcium mobilization (FLIPR). An outline of the steps: as §1

[1] abbreviates: 100% efficacy is the maximum response obtained with the Carbachol control.

For orientation: Emax means the greatest response seen or fitted, relative to the assay's reference.

Turning to `CC(=O)N[C@H]1CCC2(CCN(CCC3CCN(C(C)=O)CC3)CC2)c2ccccc21` [compound 832], at M1 muscarinic receptor (setting [1]), the “M1 Efficacy” value is “xx (efficacy was calculated to be between 100% and 25%)”. Moreover, the “M1 Activity” value at M1 muscarinic receptor is given as “xxx (activity was measured to be less than 2.0 μM)”. In addition, the “M4 Efficacy” value on M4 muscarinic receptor (setting [1]) is “xx (efficacy was calculated to be between 100% and 25%)”. At M4 muscarinic receptor, the “M4 Activity” value was “xxx (activity was measured to be less than 2.0 μM)”.
In the case of `CC(=O)NC1CCC2(CCN(CCC3CCN(C(C)=O)CC3)CC2)c2ccccc21` (stereo not drawn) [compound 833], the Emax on M1 muscarinic receptor (setting [1]) and on M4 muscarinic receptor (setting [1]) was 25 to 100% throughout. Further, the “M1 Activity” value on M1 muscarinic receptor was “xxx (activity was measured to be less than 2.0 μM)”. In addition, the “M4 Activity” value at M4 muscarinic receptor is listed as “xxx (activity was measured to be less than 2.0 μM)”.
As for `CC(=O)N[C@H]1CC2(CCN(C34CCCCC3C4)CC2)c2ccccc21` (stereo partly drawn) [compound 834], the maximum response (Emax) on M1 muscarinic receptor (setting [1]) and on M4 muscarinic receptor (setting [1]) was 25 to 100% in each case. In addition, the “M1 Activity” value on M1 muscarinic receptor is given as “xxx (activity was measured to be less than 2.0 μM)”. At M4 muscarinic receptor, the “M4 Activity” value is reported as “xxx (activity was measured to be less than 2.0 μM)”.
On to `CCOC(=O)N1C2CCC1CC(N1CCC3(CC1)CC(=O)c1ccc(Cl)cc13)C2` (stereo not drawn) [compound 836], for which the maximal effect (Emax) at M1 muscarinic receptor (setting [1]) and on M4 muscarinic receptor (setting [1]) was 25 to 100% each time. Further, the “M1 Activity” value on M1 muscarinic receptor was “xxx (activity was measured to be less than 2.0 μM)”. Further, on M4 muscarinic receptor, the “M4 Activity” value was “xxx (activity was measured to be less than 2.0 μM)”.
Regarding `COc1cccc(-c2cncc(N3CCC(N4CCC5(CC4)CN(C(C)=O)c4ccccc45)CC3)n2)c1` [compound 837], the Emax at M1 muscarinic receptor (setting [1]) and at M4 muscarinic receptor (setting [1]) was less than 25% in each case. Moreover, on M1 muscarinic receptor, the “M1 Activity” value is “x (activity was measured to be greater than 5.0 μM)”. Besides, the “M4 Activity” value at M4 muscarinic receptor was “x (activity was measured to be greater than 5.0 μM)”.
`CCOC(=O)N1CCC(N2CCC3(CC2)CN(c2cccc(OC)c2)c2ccc(F)cc23)CC1` [compound 838]: the Emax on M1 muscarinic receptor (setting [1]) and at M4 muscarinic receptor (setting [1]) was 25 to 100% throughout. The “M1 Activity” value at M1 muscarinic receptor is recorded as “xxx (activity was measured to be less than 2.0 μM)”. Besides, the “M4 Activity” value at M4 muscarinic receptor is reported as “xxx (activity was measured to be less than 2.0 μM)”.
With `Cc1ccc2c(c1)C1(CCN(C3CC4CCC3C4)CC1)CN2C(=O)c1ccncc1` (stereo not drawn) [compound 840], the Emax on M1 muscarinic receptor (setting [1]) and on M4 muscarinic receptor (setting [1]) was less than 25% each time. Also, on M1 muscarinic receptor, the “M1 Activity” value is “x (activity was measured to be greater than 5.0 μM)”. Also, the “M4 Activity” value on M4 muscarinic receptor is listed as “x (activity was measured to be greater than 5.0 μM)”.
Turning to `O=C(N[C@H]1CC2(CCN(C3CCCCC3)CC2)c2ccccc21)N1CCCC1` [compound 842], the Emax at M1 muscarinic receptor (setting [1]) and at M4 muscarinic receptor (setting [1]) was less than 25% in each case. For the same molecule, at M1 muscarinic receptor, the “M1 Activity” value is recorded as “x (activity was measured to be greater than 5.0 μM)”. Besides, on M4 muscarinic receptor, the “M4 Activity” value is listed as “xxx (activity was measured to be less than 2.0 μM)”.
Regarding `CCOC(=O)N1CC[C@@H](CN2CCC3(CC2)CN(C(C)=O)c2ccccc23)C1` [compound 843], the maximal response (Emax) at M1 muscarinic receptor (setting [1]) and at M4 muscarinic receptor (setting [1]) was 25 to 100% in each case. For the same molecule, on M1 muscarinic receptor, the “M1 Activity” value is given as “xxx (activity was measured to be less than 2.0 μM)”. Besides, on M4 muscarinic receptor, the “M4 Activity” value was “xxx (activity was measured to be less than 2.0 μM)”.
On to `CC#CCN1CC2(CCN(C3CCN(C(=O)OCC)CC3)CC2)c2cc(F)ccc21` [compound 844], for which the Emax on M1 muscarinic receptor (setting [1]) and at M4 muscarinic receptor (setting [1]) was 25 to 100% throughout. The “M1 Activity” value on M1 muscarinic receptor is reported as “xxx (activity was measured to be less than 2.0 μM)”. In addition, the “M4 Activity” value on M4 muscarinic receptor is “xxx (activity was measured to be less than 2.0 μM)”.
On to `CC(=O)N1CC2(CCN(CC3=CCC4C[C@@H]3C4(C)C)CC2)c2cc(F)ccc21` [compound 845], for which the Emax on M1 muscarinic receptor (setting [1]) and on M4 muscarinic receptor (setting [1]) was less than 25% in each case. Moreover, the “M1 Activity” value at M1 muscarinic receptor was “x (activity was measured to be greater than 5.0 μM)”. Besides, the “M4 Activity” value on M4 muscarinic receptor was “x (activity was measured to be greater than 5.0 μM)”.
In the case of `O=C1CC2(CCN(CC3CCCCC3)C2)c2ccc(F)cc21` (stereo not drawn) [compound 846], the Emax at M1 muscarinic receptor (setting [1]) and at M4 muscarinic receptor (setting [1]) was less than 25% throughout. Also, the “M1 Activity” value at M1 muscarinic receptor was “xx (activity was measured to be between 2.0 μM and 5.0 μM)”. The “M4 Activity” value at M4 muscarinic receptor is “xx (activity was measured to be between 2.0 μM and 5.0 μM)”.
With `CN(C)C(=O)N1CC2(CCN(C[C@H]3CCN(C(=O)OCC(F)F)C3)CC2)c2cc(F)ccc21` [compound 848], the values for the Emax on M1 muscarinic receptor (setting [1]) and at M4 muscarinic receptor (setting [1]) were 25 to 100% and greater than 100%, respectively. For the same molecule, the “M1 Activity” value on M1 muscarinic receptor is recorded as “xxx (activity was measured to be less than 2.0 μM)”. Further, the “M4 Activity” value at M4 muscarinic receptor is “xxx (activity was measured to be less than 2.0 μM)”.
As for `CCOC1CCCCC1N1CCC2(CC1)CN(C(C)=O)c1ccc(F)cc12` (stereo not drawn) [compound 849], the Emax on M1 muscarinic receptor (setting [1]) and at M4 muscarinic receptor (setting [1]) was less than 25% in each case. Moreover, the “M1 Activity” value on M1 muscarinic receptor is “x (activity was measured to be greater than 5.0 μM)”. Also, the “M4 Activity” value at M4 muscarinic receptor is recorded as “x (activity was measured to be greater than 5.0 μM)”.
As for `CCOC(=O)N1CCC(N2CCC3(CC2)CN(C(=O)CCC(C)=O)c2ccc(F)cc23)CC1` [compound 851], the maximal effect (Emax) at M1 muscarinic receptor (setting [1]) and at M4 muscarinic receptor (setting [1]) was 25 to 100% throughout. The “M1 Activity” value on M1 muscarinic receptor is on record as “xxx (activity was measured to be less than 2.0 μM)”. For the same molecule, on M4 muscarinic receptor, the “M4 Activity” value is listed as “xxx (activity was measured to be less than 2.0 μM)”.
Take `CN(C)C(=O)N1CC2(CCN(C[C@H]3CCN(c4nccs4)C3)CC2)c2cc(F)ccc21` [compound 852]: the Emax at M1 muscarinic receptor (setting [1]) and on M4 muscarinic receptor (setting [1]) was 25 to 100% throughout. Further, at M1 muscarinic receptor, the “M1 Activity” value is “xx (activity was measured to be between 2.0 μM and 5.0 μM)”. The “M4 Activity” value on M4 muscarinic receptor is recorded as “xxx (activity was measured to be less than 2.0 μM)”.
For `CC#CCOC(=O)N1CCC(N2CCC3(CC2)CN(CCOC)c2ccc(F)cc23)CC1` [compound 853], the Emax at M1 muscarinic receptor (setting [1]) and at M4 muscarinic receptor (setting [1]) was 25 to 100% throughout. For the same molecule, the “M1 Activity” value at M1 muscarinic receptor is on record as “xxx (activity was measured to be less than 2.0 μM)”. Besides, the “M4 Activity” value at M4 muscarinic receptor is “xxx (activity was measured to be less than 2.0 μM)”.
Take `O=C1CCCN1[C@H]1CCC2(CCN([C@H]3CC4CC[C@H](C4)C3)CC2)c2ccccc21` [compound 854]: the Emax at M1 muscarinic receptor (setting [1]) and at M4 muscarinic receptor (setting [1]) was 25 to 100% each time. The “M1 Activity” value at M1 muscarinic receptor is on record as “xxx (activity was measured to be less than 2.0 μM)”. Further, the “M4 Activity” value on M4 muscarinic receptor was “xxx (activity was measured to be less than 2.0 μM)”.
On to `CCOC(=O)N1CCC(N2CCC3(CC2)CN(c2cncnc2)c2ccc(F)cc23)CC1` [compound 855], for which the Emax at M1 muscarinic receptor (setting [1]) and on M4 muscarinic receptor (setting [1]) was 25 to 100% each time. At M1 muscarinic receptor, the “M1 Activity” value was “xxx (activity was measured to be less than 2.0 μM)”. For the same molecule, the “M4 Activity” value at M4 muscarinic receptor is “xxx (activity was measured to be less than 2.0 μM)”.
For the molecule `O=C1CCCN1[C@H]1CCC2(CCN(C[C@@H]3C[C@H]4C=CC3C4)CC2)c2ccccc21` [compound 856], the Emax at M1 muscarinic receptor (setting [1]) and at M4 muscarinic receptor (setting [1]) was 25 to 100% throughout. The “M1 Activity” value on M1 muscarinic receptor was “xxx (activity was measured to be less than 2.0 μM)”. The “M4 Activity” value on M4 muscarinic receptor was “xxx (activity was measured to be less than 2.0 μM)”.
With `CCOC(=O)N1CCC(N2CCC3(CC2)CN(C(C)=O)c2c(-c4ccccc4)cccc23)CC1` [compound 857], the Emax at M1 muscarinic receptor (setting [1]) was 25 to 100%; at M4 muscarinic receptor (setting [1]) it was less than 25%. The “M1 Activity” value at M1 muscarinic receptor was “x (activity was measured to be greater than 5.0 μM)”. Further, the “M4 Activity” value at M4 muscarinic receptor is “x (activity was measured to be greater than 5.0 μM)”.
